Measured values taken from patent publication US10059701B2 (Merck Patent GmbH, priority 2015, dated 2018).

Columns and labels:
[1] = target: T1, IRAK1 (Homo sapiens, UniProt P51617); assay: IRAK1 enzymatic assay (ADP-Glo luminescence); assay type: biochemical; conditions: purified human recombinant His-TEV-IRAK1 (194-712)
T1 construct: His-TEV-IRAK1 (194-712); His (N); TEV cleavage site (N)
Outline: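 Recombinant human His-TEV-IRAK1 (194-712), 0.3 μg/ml, preincubated 15 min at RT with compounds (10 μM to 0.5 nM) in 50 mM Hepes pH 7.0, 10 mM MgCl2, 2 mM DTT, 0.1% BSA. ATP-started reaction run 2 hours at RT; ADP formed from ATP hydrolysis/autophosphorylation read by ADP-Glo luminescence.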

[2] = target: T2, IRAK4 (Homo sapiens, UniProt Q9NWZ3); assay: IRAK4 enzymatic assay (ADP-Glo luminescence); assay type: biochemical; conditions: purified human recombinant His-TEV-IRAK4 (1-460), ATP 2 μM
T2 construct: His-TEV-IRAK4 (1-460); His (N); TEV cleavage site (N)
T2 sequence (Q9NWZ3 1-460): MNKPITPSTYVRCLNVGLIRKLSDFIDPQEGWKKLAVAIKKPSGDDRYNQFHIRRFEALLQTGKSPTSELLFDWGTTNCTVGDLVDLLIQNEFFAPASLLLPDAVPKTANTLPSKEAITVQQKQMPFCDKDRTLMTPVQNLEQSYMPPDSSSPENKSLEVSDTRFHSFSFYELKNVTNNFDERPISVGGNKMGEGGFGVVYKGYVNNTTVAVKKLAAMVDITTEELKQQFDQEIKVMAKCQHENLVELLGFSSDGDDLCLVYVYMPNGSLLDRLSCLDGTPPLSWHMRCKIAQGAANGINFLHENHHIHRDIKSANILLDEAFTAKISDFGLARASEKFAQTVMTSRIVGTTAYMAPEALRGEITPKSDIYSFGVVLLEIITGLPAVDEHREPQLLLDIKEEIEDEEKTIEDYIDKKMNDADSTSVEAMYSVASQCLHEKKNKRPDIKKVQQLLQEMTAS
Outline: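 Recombinant His-TEV-IRAK4 (1-460) at 0.3 μg/ml preincubated 15 min at RT with compounds (10 μM to 0.5 nM) in Hepes pH 7.0 buffer with MgCl2/MnCl2. Reaction started with 2 μM ATP and 300 nM STK1-biotin peptide, run 2 h at RT. ADP formed read by ADP-Glo luminescence.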

T1 sequence (P51617 194-712): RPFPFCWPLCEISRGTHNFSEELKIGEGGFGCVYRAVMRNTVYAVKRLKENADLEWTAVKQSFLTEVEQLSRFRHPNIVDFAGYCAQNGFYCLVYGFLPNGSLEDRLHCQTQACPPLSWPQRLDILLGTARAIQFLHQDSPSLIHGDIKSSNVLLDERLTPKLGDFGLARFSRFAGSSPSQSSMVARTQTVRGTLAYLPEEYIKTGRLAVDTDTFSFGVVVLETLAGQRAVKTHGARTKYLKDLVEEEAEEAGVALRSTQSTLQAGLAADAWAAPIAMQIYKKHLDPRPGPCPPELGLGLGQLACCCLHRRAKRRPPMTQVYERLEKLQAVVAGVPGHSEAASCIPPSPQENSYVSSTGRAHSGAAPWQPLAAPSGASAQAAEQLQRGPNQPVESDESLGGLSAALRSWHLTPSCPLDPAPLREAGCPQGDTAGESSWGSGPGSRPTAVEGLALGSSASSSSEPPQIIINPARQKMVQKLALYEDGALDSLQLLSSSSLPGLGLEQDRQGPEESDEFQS

Row | SMILES | IC50 [1] | IC50 [2]
1 | O=C(/C=C1\Nc2cc(N3CCOCC3=O)ccc2N1CCCO)c1ccc2ccccc2n1 [Compound 149, (E)-4-(1-(3-hydroxypropyl)-2-(2-oxo-2-(quinolin-2-yl)ethylidene)-2,3-dihydro-1H-benzo[d]imidazol-5-yl)morpholin-3-one] | > 1000 nM | > 1000 nM
2 | O=C1C[C@H](n2/c(=N/C(=O)c3cccc(C(F)(F)F)c3)[nH]c3cc(N4CCCOC4=O)ccc32)CN1 [Compound 154, (S,E)-N-(5-(2-oxo-1,3-oxazinan-3-yl)-1-(5-oxopyrrolidin-3-yl)-1H-benzo[d]imidazol-2(3H)-ylidene)-3-(trifluoromethyl)benzamide] | > 1000 nM | 100 to 1000 nM
3 | O=C(/N=c1\[nH]c2cc(N3CCCOC3=O)ccc2n1CC1COC1)c1cccc(C(F)F)c1 [Compound 159, (E)-3-(difluoromethyl)-N-(1-(oxetan-3-ylmethyl)-5-(2-oxo-1,3-oxazinan-3-yl)-1H-benzo[d]imidazol-2(3H)-ylidene)benzamide] | 100 to 1000 nM | ≤ 100 nM
4 | O=C(/N=c1\[nH]c2cc(N3CCCOC3=O)ccc2n1CC1CCCCO1)c1cccc(C(F)F)c1 (stereo not drawn) [Compound 160, (E)-3-(difluoromethyl)-N-(5-(2-oxo-1,3-oxazinan-3-yl)-1-((tetrahydro-2H-pyran-2-yl)methyl)-1H-benzo[d]imidazol-2(3H)-ylidene)benzamide] | 100 to 1000 nM | ≤ 100 nM
5 | O=C(/N=c1\[nH]c2cc(N3CCOCC3=O)ccc2n1CCCO)c1cccc(-c2ccn(CC(F)(F)F)c(=O)c2)c1 [Compound 163, (E)-N-(1-(3-hydroxypropyl)-5-(3-oxomorpholino)-1H-benzo[d]imidazol-2(3H)-ylidene)-3-(2-oxo-1-(2,2,2-trifluoroethyl)-1,2-dihydropyridin-4-yl)benzamide] | 100 to 1000 nM | ≤ 100 nM
6 | O=C(/N=c1\[nH]c2cc(N3CCOCC3=O)ccc2n1CCCO)c1cccc(-c2ccn(C(F)F)c(=O)c2)c1 [Compound 164, (E)-3-(1-(difluoromethyl)-2-oxo-1,2-dihydropyridin-4-yl)-N-(1-(3-hydroxypropyl)-5-(3-oxomorpholino)-1H-benzo[d]imidazol-2(3H)-ylidene)benzamide] | 100 to 1000 nM | ≤ 100 nM
7 | CN1CCC(n2/c(=N/C(=O)c3cccc(C(F)F)c3)[nH]c3cc(N4CCOCC4=O)ccc32)CC1 [Compound 165, (E)-3-(difluoromethyl)-N-(1-(1-methylpiperidin-4-yl)-5-(3-oxomorpholino)-1H-benzo[d]imidazol-2(3H)-ylidene)benzamide] | 100 to 1000 nM | 100 to 1000 nM
8 | O=C(O)CCn1/c(=N/C(=O)c2cccc(C(F)(F)F)c2)[nH]c2cc(N3CCOCC3=O)ccc21 [Compound 166, (E)-3-(5-(3-oxomorpholino)-2-((3-(trifluoromethyl)benzoyl)imino)-2,3-dihydro-1H-benzo[d]imidazol-1-yl)propanoic acid] | > 1000 nM | ≤ 100 nM
9 | O=C(O)Cn1/c(=N/C(=O)c2cccc(C(F)(F)F)c2)[nH]c2cc(N3CCOCC3=O)ccc21 [Compound 167, (E)-2-(5-(3-oxomorpholino)-2-((3-(trifluoromethyl)benzoyl)imino)-2,3-dihydro-1H-benzo[d]imidazol-1-yl)acetic acid] | > 1000 nM | > 1000 nM
10 | O=C(O)CCCn1/c(=N/C(=O)c2cccc(C(F)(F)F)c2)[nH]c2cc(N3CCCOC3=O)ccc21 [Compound 168, (E)-4-(5-(2-oxo-1,3-oxazinan-3-yl)-2-((3-(trifluoromethyl)benzoyl)imino)-2,3-dihydro-1H-benzo[d]imidazol-1-yl)butanoic acid] | > 1000 nM | ≤ 100 nM
11 | O=C(O)CCCn1/c(=N/C(=O)c2cccc(C(F)F)c2)[nH]c2cc(N3CCCOC3=O)ccc21 [Compound 169, (E)-4-(2-((3-(difluoromethyl)benzoyl)imino)-5-(2-oxo-1,3-oxazinan-3-yl)-2,3-dihydro-1H-benzo[d]imidazol-1-yl)butanoic acid] | > 1000 nM | ≤ 100 nM

Further lines, results first:

Row | IC50 [1] | IC50 [2] | SMILES
12 | 100 to 1000 nM | 100 to 1000 nM | N#Cc1cccc(C(=O)/C=C2\Nc3cc(N4CCOCC4=O)ccc3N2CCCO)c1 [Compound 146, (E)-3-(2-(1-(3-hydroxypropyl)-5-(3-oxomorpholino)-1H-benzo[d]imidazol-2(3H)-ylidene)acetyl)benzonitrile]
13 | 100 to 1000 nM | ≤ 100 nM | O=C(/C=C1\Nc2cc(N3CCOCC3=O)ccc2N1CCCO)c1cccc(C(F)(F)F)n1 [Compound 147, (E)-4-(1-(3-hydroxypropyl)-2-(2-oxo-2-(6-(trifluoromethyl)pyridin-2-yl)ethylidene)-2,3-dihydro-1H-benzo[d]imidazol-5-yl)morpholin-3-one]
14 | 100 to 1000 nM | ≤ 100 nM | O=C(/C=C1\Nc2cc(N3CCOCC3=O)ccc2N1CCCO)c1cccc(Br)n1 [Compound 148, (E)-4-(2-(2-(6-bromopyridin-2-yl)-2-oxoethylidene)-1-(3-hydroxypropyl)-2,3-dihydro-1H-benzo[d]imidazol-5-yl)morpholin-3-one]
15 | 100 to 1000 nM | ≤ 100 nM | NC(=O)[C@H]1CC[C@@H](n2/c(=N/C(=O)c3cccc(C(F)(F)F)c3)[nH]c3cc(N4CCOCC4=O)ccc32)CC1 [Compound 150, (E)-N-(1-((1s,4s)-4-carbamoylcyclohexyl)-5-(3-oxomorpholino)-1H-benzo[d]imidazol-2(3H)-ylidene)-3-(trifluoromethyl)benzamide]
16 | ≤ 100 nM | ≤ 100 nM | O=C(/N=c1\[nH]c2cc(N3CCOCC3=O)ccc2n1CCCO)c1cccc(SC(F)(F)F)c1 [Compound 151, (E)-N-(1-(3-hydroxypropyl)-5-(3-oxomorpholino)-1H-benzo[d]imidazol-2(3H)-ylidene)-3-((trifluoromethyl)thio)benzamide]
17 | ≤ 100 nM | ≤ 100 nM | O=C(/N=c1\[nH]c2cc(N3CCOCC3=O)ccc2n1CCCO)c1cccc(S(=O)(=O)C(F)(F)F)c1 [Compound 152, (E)-N-(1-(3-hydroxypropyl)-5-(3-oxomorpholino)-1H-benzo[d]imidazol-2(3H)-ylidene)-3-((trifluoromethyl)sulfonyl)benzamide]
18 | ≤ 100 nM | ≤ 100 nM | Cn1ccc(-c2cccc(C(=O)/N=c3\[nH]c4cc(N5CCOCC5=O)ccc4n3CCCO)c2)cc1=O [Compound 153, (E)-N-(1-(3-hydroxypropyl)-5-(3-oxomorpholino)-1H-benzo[d]imidazol-2(3H)-ylidene)-3-(1-methyl-2-oxo-1,2-dihydropyridin-4-yl)benzamide]
19 | 100 to 1000 nM | ≤ 100 nM | O=C(/N=c1\[nH]c2cc(N3CCCOC3=O)ccc2n1CC1CCOCC1)c1cccc(C(F)(F)F)c1 [Compound 155, (E)-N-(5-(2-oxo-1,3-oxazinan-3-yl)-1-((tetrahydro-2H-pyran-4-yl)methyl)-1H-benzo[d]imidazol-2(3H)-ylidene)-3-(trifluoromethyl)benzamide]
20 | 100 to 1000 nM | ≤ 100 nM | O=C(/N=c1\[nH]c2cc(N3CCCOC3=O)ccc2n1C1CC(F)(F)C1)c1cccc(C(F)(F)F)c1 [Compound 156, (E)-N-(1-(3,3-difluorocyclobutyl)-5-(2-oxo-1,3-oxazinan-3-yl)-1H-benzo[d]imidazol-2(3H)-ylidene)-3-(trifluoromethyl)benzamide]
21 | ≤ 100 nM | ≤ 100 nM | O=C(/N=c1\[nH]c2cc(N3CCCOC3=O)ccc2n1C1CCS(=O)(=O)C1)c1cccc(C(F)(F)F)c1 (stereo not drawn) [Compound 157, (E)-N-(1-(1,1-dioxidotetrahydrothiophen-3-yl)-5-(2-oxo-1,3-oxazinan-3-yl)-1H-benzo[d]imidazol-2(3H)-ylidene)-3-(trifluoromethyl)benzamide]
22 | 100 to 1000 nM | ≤ 100 nM | O=C(/N=c1\[nH]c2cc(N3CCCOC3=O)ccc2n1CC1COC1)c1cccc(C(F)(F)F)c1 [Compound 158, (E)-N-(1-(oxetan-3-ylmethyl)-5-(2-oxo-1,3-oxazinan-3-yl)-1H-benzo[d]imidazol-2(3H)-ylidene)-3-(trifluoromethyl)benzamide]
23 | ≤ 100 nM | ≤ 100 nM | N#Cc1cccc(C(=O)/N=c2\[nH]c3cc(N4CCCOC4=O)ccc3n2CC2CCCCO2)c1 (stereo not drawn) [Compound 161, (E)-3-cyano-N-(5-(2-oxo-1,3-oxazinan-3-yl)-1-((tetrahydro-2H-pyran-2-yl)methyl)-1H-benzo[d]imidazol-2(3H)-ylidene)benzamide]
24 | ≤ 100 nM | ≤ 100 nM | O=C(/N=c1\[nH]c2cc(N3CCCOC3=O)ccc2n1CC1(O)CCCC1)c1cccc(C(F)(F)F)c1 [Compound 162, (E)-N-(1-((1-hydroxycyclopentyl)methyl)-5-(2-oxo-1,3-oxazinan-3-yl)-1H-benzo[d]imidazol-2(3H)-ylidene)-3-(trifluoromethyl)benzamide]
